Test results reported in patent US20230346961A1, “GLP-1 AND GIP RECEPTOR CO-AGONISTS” (Novo Nordisk A/S, priority 2020, published 2023).
Read-outs that look alike come from different tables or passages of the source. Starred links: 1 amine or outer side, 2 acyl side, 3 side chain; linkers in the order of their positions; H or OH if unused. Non-standard residues stand in square brackets, D forms with d. Residues, ends and D or L forms follow the SMILES beside them. Groups on a side chain read outwards from the residue. *: point of attachment. C20 diacid = O=C(O)CCCCCCCCCCCCCCCCCCC(=O)*; γGlu = O=C(O)[C@H](CCC(=O)[*:2])N[*:1]; εLys = N[C@@H](CCCCN[*:1])C(=O)[*:2]; Trx = NC[C@H]1CC[C@H](C(=O)O)CC1; AEEA = NCCOCCOCC(=O)O; Aib = CC(C)(N)C(=O)O

Legend:
[1] = Pharmacokinetic study in minipigs (terminal half-life after i.v. administration); assay type: in vivo; conditions: female, Göttingen, minipig, in vivo, iv
Experimental: The purpose of this example is to determine the half-life in vivo of the derivatives of the present invention after i.v. administration to minipigs, i.e. the prolongation of their time in the body and thereby their time of action. This is done in a pharmacokinetic (PK) study, where the terminal half-life of the derivative in question is determined. By terminal half-life is generally meant the period of time it takes to […] certain plasma concentration, measured after the initial distribution phase. Female Göttingen minipigs were obtained from Ellegaard Göttingen Minipigs (Dalmose, Denmark) approximately 7-14 months of age and weighing from approximately 16-35 kg were used in the studies. The minipigs were housed individually and fed restrictedly once daily with SDS minipig diet (Special Diets Services, Essex, UK). After at 3 weeks of acclimatisation two permanent central venous catheters were implanted in vena cava caudalis in each animal. The animals were allowed 1 week recovery after the surgery, and were then used for repeated pharmacokinetic studies with a suitable wash-out period between successive derivative dosing. The animals were fasted for approximately 18 hours before dosing and from 0 to 4 hours after dosing, but had adlibitum access to water during the whole period. […] Blood samples (for example 0.8 mL) were collected in 8 mM EDTA buffer and then centrifuged at 4° C. and 1942 g for 10 minutes. Plasma was pipetted into Micronic tubes on dry ice and kept at -20° C. until analysed for plasma concentration of the compounds using ELISA, or a similar antibody-based assay, or LCMS. […] (Pharsight Inc., Mountain View, CA, USA), and the resulting terminal half-lives (harmonic mean) determined.

[2] = biological target: human GLP-1 receptor (Homo sapiens, UniProt P43220); test: cell-based; conditions: hGLP-1R
[3] = biological target: T1, mouse GIP receptor (Mus musculus, UniProt Q0P543); test: cell-based
T1 sequence (Q0P543 19-460): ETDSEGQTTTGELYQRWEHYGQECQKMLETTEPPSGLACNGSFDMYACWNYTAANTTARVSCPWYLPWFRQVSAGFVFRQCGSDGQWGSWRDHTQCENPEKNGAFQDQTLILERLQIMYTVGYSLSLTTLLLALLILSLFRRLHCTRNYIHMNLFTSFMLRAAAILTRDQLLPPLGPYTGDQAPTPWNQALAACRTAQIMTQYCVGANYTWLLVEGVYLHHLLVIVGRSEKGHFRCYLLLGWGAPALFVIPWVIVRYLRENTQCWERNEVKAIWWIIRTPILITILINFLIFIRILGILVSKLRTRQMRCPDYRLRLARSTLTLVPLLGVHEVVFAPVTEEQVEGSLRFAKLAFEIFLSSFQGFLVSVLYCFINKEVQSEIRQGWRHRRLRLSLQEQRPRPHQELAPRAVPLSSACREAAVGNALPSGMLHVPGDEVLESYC

[4] = biological target: human glucagon receptor (Homo sapiens, UniProt P47871); test: cell-based
[5] = biological target: T2, mouse GLP-1 receptor (Mus musculus, UniProt O35659)
T2 sequence (O35659 22-463): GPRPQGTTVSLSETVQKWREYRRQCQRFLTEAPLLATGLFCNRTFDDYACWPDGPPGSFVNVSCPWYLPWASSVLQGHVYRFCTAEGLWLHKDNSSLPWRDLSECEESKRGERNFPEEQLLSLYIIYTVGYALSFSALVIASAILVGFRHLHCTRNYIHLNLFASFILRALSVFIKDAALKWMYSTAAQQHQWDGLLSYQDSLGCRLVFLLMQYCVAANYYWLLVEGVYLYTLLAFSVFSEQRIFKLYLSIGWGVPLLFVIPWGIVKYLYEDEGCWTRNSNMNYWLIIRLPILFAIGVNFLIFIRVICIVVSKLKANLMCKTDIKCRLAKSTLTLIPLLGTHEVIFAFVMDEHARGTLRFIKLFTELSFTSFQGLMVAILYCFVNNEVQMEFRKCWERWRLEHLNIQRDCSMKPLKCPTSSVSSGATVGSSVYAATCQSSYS
Experimental: The in vitro functional potency is the measure of target receptor activation in a whole cell assay.
In vitro functional potency was determined by measuring the response of the target receptor in a reporter gene assay in individual cell lines. […] When the respective receptor is activated, it results in the production of cAMP, which in turn results in expression of the luciferase protein. When assay incubation is completed, luciferase substrate (luciferin) is added resulting in the enzymatic conversion of luciferin to oxyluciferin and producing bioluminescence. The luminescence is measured as the readout for the assay.
The cells lines used in these assays were BHK cells with BHKTS13 as a parent cell line. The cell lines were derived from a clone containing the CRE luciferase element and were established by further transfection with the respective receptor to obtain the relevant cell line.
The cells were cultured at 37° C. with 5% CO2 in Cell Culture Medium. They were aliquoted and stored in liquid nitrogen. The cells were kept in continuous culture and were seeded out the day before each assay.
GLP-1R and GcgR Cell Culture Medium consisted of DMEM medium with 10% FBS, 500 μg/mL G418, and 300 μg/mL hygromycin. GIPR Cell Culture Medium consisted of DMEM medium with 10% FBS, 400 μg/mL G418, and 300 μg/mL hygromycin. Assay Buffer consisted of DMEM w/o phenol red, 10 mM Hepes, 1×Glutamax, 1% ovalbumin, and 0.1% Pluronic F-68 with the addition of HSA at twice the final assay concentration.
• 1) Cells were plated at 5000 cells/well and incubated overnight in the assay plate. • 2) Cells were washed once in DPBS. • 3) Stocks of the test compounds and reference compounds in concentrations ranging from 100-300 μM were diluted 1:150 in Assay Buffer. Compounds were then diluted 1:10 in column 1 of a 96 deep well dilution plate and then carried across the row creating a 3.5 fold, 12 point dilution curve. • 4) Assay Buffer (50 μl aliquot) with or without HSA was added to each well in the assay plate. • 5) A 50 μl aliquot of compound or blank was transferred from the dilution plate to the assay plate containing the Assay Buffer with or without HSA. • 6) The assay plate was incubated for 3 h in a 5% CO2 incubator at 37° C. 7) The cells were washed once with DPBS. • 8) A 100 μl aliquot of DPBS was added to each well of the assay plate. • 9) A 100 μl aliquot of steadylite plus reagent (light sensitive) was added to each well of the assay plate. • 10) Each assay plate was covered with aluminum foil to protect it from light and shaken at 250 RPM for 30 min at room temperature. • 11) Each assay plate was read in a microtiter plate reader.
The data from the microtiter plate reader was first regressed in an Excel in order to calculate the x-axis, log scale concentrations based on the individual test compound's stock concentration and the dilutions of the assay. […] The software performs a non-linear regression (log(agonist) vs response). A minimum of two replicates was measured for each sample. The reported values are averages of the replicates.

[6] = minipigs, i.v. administration, harmonic mean, read-out: Terminal half-life t1/2 (converted)

Sequence of human GLP-1 receptor (P43220 24-463): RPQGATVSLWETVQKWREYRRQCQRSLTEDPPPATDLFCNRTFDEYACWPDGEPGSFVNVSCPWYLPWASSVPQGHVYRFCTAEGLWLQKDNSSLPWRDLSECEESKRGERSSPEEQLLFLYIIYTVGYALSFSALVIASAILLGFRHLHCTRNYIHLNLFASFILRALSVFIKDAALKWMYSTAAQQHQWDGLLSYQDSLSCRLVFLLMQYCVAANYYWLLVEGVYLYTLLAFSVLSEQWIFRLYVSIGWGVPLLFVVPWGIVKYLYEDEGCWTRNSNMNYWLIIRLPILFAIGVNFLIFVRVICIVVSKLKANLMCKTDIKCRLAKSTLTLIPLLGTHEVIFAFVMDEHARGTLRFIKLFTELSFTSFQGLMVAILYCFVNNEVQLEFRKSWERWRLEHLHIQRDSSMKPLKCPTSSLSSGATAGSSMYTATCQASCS
Sequence of human glucagon receptor (P47871 26-477): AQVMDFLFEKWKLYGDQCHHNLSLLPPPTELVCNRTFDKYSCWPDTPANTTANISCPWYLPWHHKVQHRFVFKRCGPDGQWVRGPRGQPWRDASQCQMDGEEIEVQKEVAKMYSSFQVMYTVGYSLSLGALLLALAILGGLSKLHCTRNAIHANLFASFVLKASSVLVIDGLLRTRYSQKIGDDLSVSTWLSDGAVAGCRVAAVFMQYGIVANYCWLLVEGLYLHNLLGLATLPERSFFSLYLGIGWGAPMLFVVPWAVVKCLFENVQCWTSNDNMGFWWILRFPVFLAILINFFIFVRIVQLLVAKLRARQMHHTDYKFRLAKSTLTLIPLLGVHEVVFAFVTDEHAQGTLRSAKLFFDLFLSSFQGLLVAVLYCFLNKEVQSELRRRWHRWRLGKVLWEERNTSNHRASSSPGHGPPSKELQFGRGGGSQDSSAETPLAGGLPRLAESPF

| Structure (SMILES) | half-life [1, 6] | EC50 ([2]; CRE Luc 0% HSA EC50, 0% HSA) | EC50 ([2]; CRE Luc 1% HSA EC50, 1% HSA) | EC50 [3] | EC50 [4] | EC50 [5] | half-life [1] |
| --- | --- | --- | --- | --- | --- | --- | --- |
| CC[C@H](C)[C@H](NC(=O)[C@H](CO)NC(=O)[C@H](Cc1ccc(O)cc1)NC(=O)[C@H](CC(=O)O)NC(=O)[C@H](CO)NC(=O)[C@@H](NC(=O)[C@H](Cc1ccccc1)NC(=O)[C@@H](NC(=O)CNC(=O)[C@H](CCC(=O)O)NC(=O)C(C)(C)NC(=O)[C@@H](N)Cc1ccc(O)cc1)[C@@H](C)O)[C@@H](C)O)C(=O)N[C@@H](Cc1ccc(O)cc1)C(=O)N[C@@H](CC(C)C)C(=O)N[C@@H](CCC(=O)O)C(=O)N[C@@H](CCCCNC(=O)[C@@H](N)CCCCNC(=O)[C@@H](N)CCCCNC(=O)CC[C@H](NC(=O)[C@H]1CC[C@H](CNC(=O)CCCCCCCCCCCCCCCCCCC(=O)O)CC1)C(=O)O)C(=O)N[C@@H](CCC(N)=O)C(=O)N[C@@H](C)C(=O)N[C@@H](C)C(=O)NC(C)(C)C(=O)N[C@@H](CCC(=O)O)C(=O)N[C@@H](Cc1ccccc1)C(=O)N[C@H](C(=O)N[C@@H](CC(N)=O)C(=O)N[C@@H](Cc1c[nH]c2ccccc12)C(=O)N[C@@H](CC(C)C)C(=O)N[C@@H](CC(C)C)C(=O)N[C@@H](C)C(=O)NCC(=O)NCC(=O)N1CCC[C@H]1C(=O)N[C@@H](CO)C(=O)N[C@@H](CO)C(=O)NCC(=O)N[C@@H](C)C(=O)N1CCC[C@H]1C(=O)N1CCC[C@H]1C(=O)N1CCC[C@H]1C(=O)N[C@@H](CO)C(N)=O)C(C)C [Compound 20] (H-Y[Aib]EGTFTSDYSIYLEK([εLys-εLys-γGlu-Trx-C20 diacid])QAA[Aib]EFVNWLLAGGPSSGAPPPS-NH2; N-terminus assumed) | 3.67 days | 0.0033 nM | 0.261 nM | 0.012 nM | > 10 nM | 2.6 pM | – |
| CC[C@H](C)[C@H](NC(=O)[C@H](CO)NC(=O)[C@H](Cc1ccc(O)cc1)NC(=O)[C@H](CC(=O)O)NC(=O)[C@H](CO)NC(=O)[C@@H](NC(=O)[C@H](Cc1ccccc1)NC(=O)[C@@H](NC(=O)CNC(=O)[C@H](CCC(=O)O)NC(=O)C(C)(C)NC(=O)[C@@H](N)Cc1ccc(O)cc1)[C@@H](C)O)[C@@H](C)O)C(=O)N[C@@H](Cc1ccc(O)cc1)C(=O)N[C@@H](CC(C)C)C(=O)N[C@@H](CCC(=O)O)C(=O)N[C@@H](CCC(=O)O)C(=O)N[C@@H](CCC(N)=O)C(=O)N[C@@H](C)C(=O)N[C@@H](C)C(=O)NC(C)(C)C(=O)N[C@@H](CCCCNC(=O)[C@@H](N)CCCCNC(=O)[C@@H](N)CCCCNC(=O)CC[C@H](NC(=O)[C@H]1CC[C@H](CNC(=O)CCCCCCCCCCCCCCCCCCC(=O)O)CC1)C(=O)O)C(=O)N[C@@H](Cc1ccccc1)C(=O)N[C@H](C(=O)N[C@@H](CC(N)=O)C(=O)N[C@@H](Cc1c[nH]c2ccccc12)C(=O)N[C@@H](CC(C)C)C(=O)N[C@@H](CC(C)C)C(=O)N[C@@H](C)C(=O)NCC(=O)NCC(=O)N1CCC[C@H]1C(=O)N[C@@H](CO)C(=O)N[C@@H](CO)C(=O)NCC(=O)N[C@@H](C)C(=O)N1CCC[C@H]1C(=O)N1CCC[C@H]1C(=O)N1CCC[C@H]1C(=O)N[C@@H](CO)C(N)=O)C(C)C [Compound 19] (H-Y[Aib]EGTFTSDYSIYLEEQAA[Aib]K([εLys-εLys-γGlu-Trx-C20 diacid])FVNWLLAGGPSSGAPPPS-NH2; N-terminus assumed) | 4.67 days | 0.0046 nM | 0.297 nM | 0.134 nM | > 10 nM | 5.5 pM | – |
| CC[C@H](C)[C@H](NC(=O)[C@H](CO)NC(=O)[C@H](Cc1ccc(O)cc1)NC(=O)[C@H](CC(=O)O)NC(=O)[C@H](CO)NC(=O)[C@@H](NC(=O)[C@H](Cc1ccccc1)NC(=O)[C@@H](NC(=O)CNC(=O)[C@H](CCC(=O)O)NC(=O)C(C)(C)NC(=O)[C@@H](N)Cc1ccc(O)cc1)[C@@H](C)O)[C@@H](C)O)C(=O)N[C@@H](Cc1ccc(O)cc1)C(=O)N[C@@H](CC(C)C)C(=O)N[C@@H](CCC(=O)O)C(=O)N[C@@H](CCCCN)C(=O)N[C@@H](CCCCNC(=O)COCCOCCNC(=O)COCCOCCNC(=O)CC[C@H](NC(=O)[C@H]1CC[C@H](CNC(=O)CCCCCCCCCCCCCCCCCCC(=O)O)CC1)C(=O)O)C(=O)N[C@@H](C)C(=O)N[C@@H](C)C(=O)NC(C)(C)C(=O)N[C@@H](CCC(=O)O)C(=O)N[C@@H](Cc1ccccc1)C(=O)N[C@H](C(=O)N[C@@H](CC(N)=O)C(=O)N[C@@H](Cc1c[nH]c2ccccc12)C(=O)N[C@@H](CC(C)C)C(=O)N[C@@H](CC(C)C)C(=O)N[C@@H](C)C(=O)NCC(=O)NCC(=O)N1CCC[C@H]1C(=O)N[C@@H](CO)C(=O)N[C@@H](CO)C(=O)NCC(=O)N[C@@H](C)C(=O)N1CCC[C@H]1C(=O)N1CCC[C@H]1C(=O)N1CCC[C@H]1C(=O)N[C@@H](CO)C(N)=O)C(C)C [Compound 22] (H-Y[Aib]EGTFTSDYSIYLEKK([AEEA-AEEA-γGlu-Trx-C20 diacid])AA[Aib]EFVNWLLAGGPSSGAPPPS-NH2; N-terminus assumed) | – | 0.0033 nM | 1.13 nM | 0.124 nM | > 10 nM | 2.1 pM | 3.96 days |
| CC[C@H](C)[C@H](NC(=O)[C@H](CO)NC(=O)[C@H](Cc1ccc(O)cc1)NC(=O)[C@H](CC(=O)O)NC(=O)[C@H](CO)NC(=O)[C@@H](NC(=O)[C@H](Cc1ccccc1)NC(=O)[C@@H](NC(=O)CNC(=O)[C@H](CCC(=O)O)NC(=O)C(C)(C)NC(=O)[C@@H](N)Cc1ccc(O)cc1)[C@@H](C)O)[C@@H](C)O)C(=O)N[C@@H](Cc1ccc(O)cc1)C(=O)N[C@@H](CC(C)C)C(=O)N[C@@H](CCC(=O)O)C(=O)N[C@@H](CCCCNC(=O)COCCOCCNC(=O)COCCOCCNC(=O)CC[C@H](NC(=O)[C@H]1CC[C@H](CNC(=O)CCCCCCCCCCCCCCCCCCC(=O)O)CC1)C(=O)O)C(=O)N[C@@H](CCC(N)=O)C(=O)N[C@@H](C)C(=O)N[C@@H](C)C(=O)NC(C)(C)C(=O)N[C@@H](CCC(=O)O)C(=O)N[C@@H](Cc1ccccc1)C(=O)N[C@H](C(=O)N[C@@H](CC(N)=O)C(=O)N[C@@H](Cc1c[nH]c2ccccc12)C(=O)N[C@@H](CC(C)C)C(=O)N[C@@H](CC(C)C)C(=O)N[C@@H](C)C(=O)NCC(=O)NCC(=O)N1CCC[C@H]1C(=O)N[C@@H](CO)C(=O)N[C@@H](CO)C(=O)NCC(=O)N[C@@H](C)C(=O)N1CCC[C@H]1C(=O)N1CCC[C@H]1C(=O)N1CCC[C@H]1C(=O)N[C@@H](CO)C(N)=O)C(C)C [Compound 21] (H-Y[Aib]EGTFTSDYSIYLEK([AEEA-AEEA-γGlu-Trx-C20 diacid])QAA[Aib]EFVNWLLAGGPSSGAPPPS-NH2; N-terminus assumed) | – | 0.003 nM | 0.465 nM | 0.0366 nM | > 10 nM | 2.6 pM | 2.58 days |
